As a reminder, the IC50 is the concentration at which inhibition is half-maximal.

In one test the target is Calf DNA polymerase α (Bos taurus, UniProt A0AAA9THK8). Description: DNA polymerase assay, calf pol α. In kind it is biochemical. An excerpt: Pol α was purified from calf thymus by immuno-affinity column chromatography as described by Tamai et al.. Recombinant rat pol β was purified from E. coli JMpβ5 as described by Date et al.. The human pol γ catalytic gene was cloned into pFastBac. Histidine-tagged enzyme was expressed using the BAC-TO-BAC HT Baculovirus Expression System according to the supplier's manual (LIFE TECHNOLOGIES, MD, USA) and purified using ProBoundresin (Invitrogen Japan, Tokyo, Japan). Human pols δ and ε were purified by the nuclear fractionation of human peripheral blood cancer cells (Molt-4) using the second subunit of pols δ and ε-conjugated affinity column chromatography, respectively. Recombinant human pols η and ι tagged with His6 at their C-terminal were expressed in SF9 insect cells using the baculovirus expression system, and were purified as described previously. A truncated form of pol κ (i.e., hDINB1DC) with 6 x His-tags attached at the C-terminal was overproduced using the BAC-to-BAC Baculovirus Expression System kit (GIBCO BRL, MD, USA) and purified as described previously. Recombinant human His-pol λ was overexpressed and purified according to a method described previously. Fish pol δ was purified from the testis of cherry salmon (Oncorhynchus masou). Pol I (α-like) from a higher plant, cauliflower inflorescence, was purified according to the methods outlined by Sakaguchi et al.. The Klenow fragment of pol I from E. coli was purchased from Worthington Biochemical Corp. (Freehold, NJ, USA). Taq pol, T4 pol, T7 RNA polymerase and T4 polynucleotide kinase were purchased from Takara (Kyoto, Japan). Bovine pancreas deoxyribonuclease I (DNase I) was obtained from Stratagene Cloning Systems (La Jolla, CA, USA).
The reaction mixtures for pol α, pol β, fish pol δ, plant pol I (α-like) and prokaryotic pols were described previously, and those for pol γ, and pols δ and ε were as described by Umeda et al. and Ogawa et al., respectively. The reaction mixtures for pols η, ι and κ were the same as for pol α, and the reaction mixture for pol λ was the same as that for pol β.
For pols, poly(dA)/oligo(dT)12-18 (A/T = 2/1) and dTTP were used as the DNA template-primer and nucleotide (i.e., dNTP) substrate, respectively. KA-A analogues (i.e., compounds 1–12) were dissolved in distilled dimethyl sulfoxide (DMSO) at various concentrations and sonicated for 30 sec. Aliquots of 4 μL of sonicated samples were mixed with 16 μL of each enzyme (final amount 0.05 units) in 50 mM Tris-HCl (pH 7.5) containing 1 mM dithiothreitol, 50% glycerol and 0.1 mM EDTA, and kept at 0 °C for 10 min. […] Activity without the inhibitor was considered 100%, and the remaining activity at each concentration of the inhibitor was determined relative to this value. […]

Another test has as its target T1, Human DNA polymerase γ (Homo sapiens, UniProt P54098).
T1 construct: His tag; made in house; host or cells: baculovirus expression system (insect cells)
T1 sequence (P54098 1-1239): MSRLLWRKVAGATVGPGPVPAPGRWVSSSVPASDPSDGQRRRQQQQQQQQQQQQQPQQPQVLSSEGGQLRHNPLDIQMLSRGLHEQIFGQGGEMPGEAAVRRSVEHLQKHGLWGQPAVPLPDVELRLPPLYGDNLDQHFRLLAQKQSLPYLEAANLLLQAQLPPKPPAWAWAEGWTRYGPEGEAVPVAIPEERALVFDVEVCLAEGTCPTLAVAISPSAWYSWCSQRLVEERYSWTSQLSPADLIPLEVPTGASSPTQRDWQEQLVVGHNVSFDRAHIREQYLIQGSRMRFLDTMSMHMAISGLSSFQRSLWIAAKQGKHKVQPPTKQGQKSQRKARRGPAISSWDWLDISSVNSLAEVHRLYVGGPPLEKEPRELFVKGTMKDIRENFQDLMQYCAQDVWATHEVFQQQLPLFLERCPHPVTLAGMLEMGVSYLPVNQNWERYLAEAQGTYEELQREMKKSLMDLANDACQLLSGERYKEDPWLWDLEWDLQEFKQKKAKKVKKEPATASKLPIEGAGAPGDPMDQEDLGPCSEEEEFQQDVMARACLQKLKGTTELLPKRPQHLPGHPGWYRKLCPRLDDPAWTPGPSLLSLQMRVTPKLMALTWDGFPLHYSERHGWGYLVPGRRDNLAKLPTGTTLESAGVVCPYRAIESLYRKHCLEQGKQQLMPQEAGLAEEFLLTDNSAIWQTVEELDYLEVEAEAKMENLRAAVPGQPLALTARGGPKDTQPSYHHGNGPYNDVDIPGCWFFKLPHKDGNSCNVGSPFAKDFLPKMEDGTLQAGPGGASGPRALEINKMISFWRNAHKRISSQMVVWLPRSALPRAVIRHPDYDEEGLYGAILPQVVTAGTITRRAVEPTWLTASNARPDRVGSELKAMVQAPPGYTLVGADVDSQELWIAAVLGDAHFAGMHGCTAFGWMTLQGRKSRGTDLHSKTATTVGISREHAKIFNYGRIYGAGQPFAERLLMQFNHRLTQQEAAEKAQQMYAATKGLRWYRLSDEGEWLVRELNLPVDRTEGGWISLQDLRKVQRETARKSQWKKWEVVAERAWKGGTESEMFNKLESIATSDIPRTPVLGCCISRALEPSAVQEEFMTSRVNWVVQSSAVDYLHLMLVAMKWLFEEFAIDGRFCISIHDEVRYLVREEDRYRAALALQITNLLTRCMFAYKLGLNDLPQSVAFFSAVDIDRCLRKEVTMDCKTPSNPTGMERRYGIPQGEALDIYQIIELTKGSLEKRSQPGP
Description: DNA polymerase assay, human pol γ. In kind it is biochemical. An excerpt: Pol α was purified from calf thymus by immuno-affinity column chromatography as described by Tamai et al.. Recombinant rat pol β was purified from E. coli JMpβ5 as described by Date et al.. The human pol γ catalytic gene was cloned into pFastBac. Histidine-tagged enzyme was expressed using the BAC-TO-BAC HT Baculovirus Expression System according to the supplier's manual (LIFE TECHNOLOGIES, MD, USA) and purified using ProBoundresin (Invitrogen Japan, Tokyo, Japan). Human pols δ and ε were purified by the nuclear fractionation of human peripheral blood cancer cells (Molt-4) using the second subunit of pols δ and ε-conjugated affinity column chromatography, respectively. Recombinant human pols η and ι tagged with His6 at their C-terminal were expressed in SF9 insect cells using the baculovirus expression system, and were purified as described previously. A truncated form of pol κ (i.e., hDINB1DC) with 6 x His-tags attached at the C-terminal was overproduced using the BAC-to-BAC Baculovirus Expression System kit (GIBCO BRL, MD, USA) and purified as described previously. […]
For pols, poly(dA)/oligo(dT)12-18 (A/T = 2/1) and dTTP were used as the DNA template-primer and nucleotide (i.e., dNTP) substrate, respectively. […] Activity without the inhibitor was considered 100%, and the remaining activity at each concentration of the inhibitor was determined relative to this value. […]

Chain of Calf DNA polymerase α (Q58D13 whole entry): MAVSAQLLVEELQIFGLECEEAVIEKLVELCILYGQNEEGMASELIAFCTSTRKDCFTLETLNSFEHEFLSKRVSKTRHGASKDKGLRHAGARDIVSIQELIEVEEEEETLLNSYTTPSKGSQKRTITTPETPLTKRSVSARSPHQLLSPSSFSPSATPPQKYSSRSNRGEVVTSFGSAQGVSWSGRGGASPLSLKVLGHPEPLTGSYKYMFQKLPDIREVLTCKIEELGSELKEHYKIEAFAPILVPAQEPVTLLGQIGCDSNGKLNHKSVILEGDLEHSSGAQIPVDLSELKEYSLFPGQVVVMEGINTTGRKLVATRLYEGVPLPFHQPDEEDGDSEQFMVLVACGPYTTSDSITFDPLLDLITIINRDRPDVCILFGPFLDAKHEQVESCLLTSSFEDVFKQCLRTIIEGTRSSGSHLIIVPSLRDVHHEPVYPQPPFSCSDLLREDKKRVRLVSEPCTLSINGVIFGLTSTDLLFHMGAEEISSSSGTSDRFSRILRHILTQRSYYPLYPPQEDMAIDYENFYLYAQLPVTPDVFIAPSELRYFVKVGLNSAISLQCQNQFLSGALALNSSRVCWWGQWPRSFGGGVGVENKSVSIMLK
Chain of Calf DNA polymerase α (A0AAA9THK8 entry or part of it): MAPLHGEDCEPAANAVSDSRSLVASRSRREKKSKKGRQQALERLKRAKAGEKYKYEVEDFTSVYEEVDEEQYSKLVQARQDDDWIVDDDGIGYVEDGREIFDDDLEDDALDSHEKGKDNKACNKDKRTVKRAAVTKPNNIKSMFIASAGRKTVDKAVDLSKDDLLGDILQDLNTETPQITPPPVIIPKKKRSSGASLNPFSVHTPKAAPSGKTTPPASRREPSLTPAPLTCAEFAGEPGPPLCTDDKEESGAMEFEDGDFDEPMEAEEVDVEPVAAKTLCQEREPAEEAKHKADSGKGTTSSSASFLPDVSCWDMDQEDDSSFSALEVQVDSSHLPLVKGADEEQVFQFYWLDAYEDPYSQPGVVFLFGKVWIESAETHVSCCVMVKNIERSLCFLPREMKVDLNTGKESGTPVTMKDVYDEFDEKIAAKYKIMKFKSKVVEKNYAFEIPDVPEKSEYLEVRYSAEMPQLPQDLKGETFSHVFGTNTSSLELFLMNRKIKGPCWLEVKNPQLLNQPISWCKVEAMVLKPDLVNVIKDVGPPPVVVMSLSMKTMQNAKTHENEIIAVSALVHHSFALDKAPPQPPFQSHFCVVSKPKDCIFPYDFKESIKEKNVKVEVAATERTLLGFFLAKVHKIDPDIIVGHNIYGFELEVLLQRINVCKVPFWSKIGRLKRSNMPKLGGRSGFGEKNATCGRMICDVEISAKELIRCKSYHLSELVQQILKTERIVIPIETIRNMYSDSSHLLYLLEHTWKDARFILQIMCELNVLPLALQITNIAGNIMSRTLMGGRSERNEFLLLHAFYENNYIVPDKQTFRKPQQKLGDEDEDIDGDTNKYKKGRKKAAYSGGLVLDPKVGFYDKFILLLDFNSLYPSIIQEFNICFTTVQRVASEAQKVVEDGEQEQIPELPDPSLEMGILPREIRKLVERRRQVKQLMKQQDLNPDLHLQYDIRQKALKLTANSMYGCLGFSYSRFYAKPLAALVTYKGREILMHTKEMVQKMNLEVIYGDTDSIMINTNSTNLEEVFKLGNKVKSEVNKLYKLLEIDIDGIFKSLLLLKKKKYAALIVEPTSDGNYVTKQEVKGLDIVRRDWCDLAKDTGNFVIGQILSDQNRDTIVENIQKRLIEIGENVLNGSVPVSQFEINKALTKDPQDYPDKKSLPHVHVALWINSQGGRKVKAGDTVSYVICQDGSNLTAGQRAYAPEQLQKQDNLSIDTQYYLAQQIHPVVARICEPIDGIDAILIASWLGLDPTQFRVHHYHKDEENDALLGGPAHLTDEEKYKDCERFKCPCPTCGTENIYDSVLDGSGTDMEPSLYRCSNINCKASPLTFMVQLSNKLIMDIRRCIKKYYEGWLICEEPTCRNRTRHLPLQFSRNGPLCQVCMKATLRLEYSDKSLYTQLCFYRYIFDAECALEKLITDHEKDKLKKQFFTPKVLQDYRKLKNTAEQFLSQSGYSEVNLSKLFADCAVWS
Chain of Calf DNA polymerase α (A0JNF4 entry or part of it, further chain): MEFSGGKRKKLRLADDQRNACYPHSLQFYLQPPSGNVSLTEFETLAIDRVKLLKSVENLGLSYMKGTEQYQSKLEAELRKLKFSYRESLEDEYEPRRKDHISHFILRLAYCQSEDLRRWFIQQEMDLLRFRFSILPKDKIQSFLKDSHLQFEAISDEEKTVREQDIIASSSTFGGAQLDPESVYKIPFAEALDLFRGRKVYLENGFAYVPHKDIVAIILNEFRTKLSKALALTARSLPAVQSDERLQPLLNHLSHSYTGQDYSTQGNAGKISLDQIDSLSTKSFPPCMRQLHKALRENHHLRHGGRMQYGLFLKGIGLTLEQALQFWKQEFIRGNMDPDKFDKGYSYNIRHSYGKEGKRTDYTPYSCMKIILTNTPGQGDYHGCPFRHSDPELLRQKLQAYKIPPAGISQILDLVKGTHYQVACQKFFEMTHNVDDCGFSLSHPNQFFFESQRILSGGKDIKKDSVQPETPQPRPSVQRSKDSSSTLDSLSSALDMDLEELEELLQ
Chain of Calf DNA polymerase α (A0A3Q1MF00 entry or part of it, further chain): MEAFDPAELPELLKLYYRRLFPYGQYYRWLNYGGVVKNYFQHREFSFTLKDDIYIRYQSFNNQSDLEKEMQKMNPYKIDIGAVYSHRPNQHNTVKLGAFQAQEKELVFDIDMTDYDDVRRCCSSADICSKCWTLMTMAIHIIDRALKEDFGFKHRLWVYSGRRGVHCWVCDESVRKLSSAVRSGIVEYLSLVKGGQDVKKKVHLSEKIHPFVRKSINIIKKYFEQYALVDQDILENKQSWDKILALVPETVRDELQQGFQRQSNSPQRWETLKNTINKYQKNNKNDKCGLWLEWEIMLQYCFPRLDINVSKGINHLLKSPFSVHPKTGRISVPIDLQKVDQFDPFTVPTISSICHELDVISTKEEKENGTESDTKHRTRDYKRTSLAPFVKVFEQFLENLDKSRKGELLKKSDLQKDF

In the case of `CC1=CC[C@H]2C(C)(C)CCC[C@]2(C)[C@H]1CCCCCCCCCCCCCCCCC(=O)O` (relative stereo) [compound 11, (1S*,4aS*,8aS*)-17-(1,4,4a,5,6,7,8,8a-octahydro-2,5,5,8a-tetramethylnaphthalen-1-yl)heptadecanoic acid], at Calf DNA polymerase α (10 and 100 μM of compound (Figure 2A)), the “Inhibitory effect on pol α compared with KA-A” value is “strongest inhibitory effect”. Also, the half-inhibitory concentration (IC50) at Calf DNA polymerase α (poly(dA)/oligo(dT)12-18 and dTTP, 0.05 units enzyme, read-out: IC50 values) was found to be 4.21 ± 0.21 µM; against Human DNA polymerase γ, 8.76 ± 0.44 µM.

The values are drawn from paper PMC6253949, “The Inhibitory Action of Kohamaic Acid A Derivatives on Mammalian DNA Polymerase β” (Molecules, 2008).
